According to patent US20230099822A1, “MR1 LIGANDS AND PHARMACEUTICAL COMPOSITIONS FOR IMMUNOMODULATION” (UNIVERSITÄT BASEL, priority 2020, published 2023):
Structures can show the parent of a compound that is named as a salt.

Key:
[1] = system: MR1T cell clones; assay: MR1T cell activation assay with drug-treated THP-1 cells; format: cell-based, human; conditions: for stimulation of TC5A87 MR1T clone (IFN-γ): THP-1 cells incubated 18 h with drug (FIG. 7d, f, g); for T cell response in MR1T cell clones: THP-1 cells treated with drug; for reactivity of DGB129 clone to drug-treated THP-1 cells: drug alone, 25 μM EHNA, 10 μM MPA, 20 μM BBG (FIG. 9H)
Experimental: (§1) MR1T cells (5×10^4/well unless otherwise indicated) were co-cultured with the indicated APCs (10^5 cells per well unless otherwise indicated) for 18 h in 120 μL volume in triplicate. In some experiments, anti-MR1 mAbs (clone 26.5, purified and endotoxin-free mouse IgG2a, (Lepore et al., 2014)) or mouse IgG2a isotype control mAbs (LEAF, Biolegend, Cat #401504) (both at 30 μg/mL) were added and incubated for 30 min at 37° C. prior to the addition of T cells.
(§2) In experiments with mycophenolic acid (10 μM), EHNA (25 μM), S-p-bromobenzylglutathione cyclopentyl diester (BBG, 20 μM) (all from Sigma-Aldrich), THP-1 cells (1×10^6/mL) were treated with the indicated concentrations of drugs in complete medium at 37° C. for 18 h before being washed twice with PBS, counted and used for T-cell activation. In experiments where THP-1 cells (1×10^6/mL) were treated with doxorubicin (75 nM) and paclitaxel (5 μM) (both from Sigma-Aldrich), the cells were incubated at 37° C. for 18 h before being washed twice with PBS, counted, and incubated for 2 h with vehicle or 150 μM dAdo and 150 μM guanosine (Sigma-Aldrich) prior to T-cell addition. In experiments where fixed A375-MR1 cells were used to activate MR1T cells, APCs (4×10^5/mL) were treated with apocynin (APO, 100 μM), L-glutathione reduced (GSH, 4 mM), N-acetyl cysteine (NAC, 4 mM), L-buthionine-sulfoximine (BSO, 400 μM) mercaptosuccinic acid (MSA, 3.3 μM), ML-210 (6 μM) or 1S,3R-RSL3 (RSL3, 1 μM), hydralazine hydrochloride (100 μM) or aminoguanidine hemisulfate salt (5 mM) for 18 h at 37° C. before being washed twice with PBS, fixed with glutaraldehyde, counted and used for MR1T cell stimulation.
(§3) The following human cytokines were assessed by ELISA using specific mAbs: GM-CSF (purified clone BVD2-23B6 and biotinylated clone BVD2-21C11, Biolegend Cat #502202 and 502304, respectively), IFN-γ (purified clone MD-1 and biotinylated clone 4S.B3, Biolegend Cat #507502 and 502504, respectively), IL-13 (purified clone JES10-5A2 and biotinylated clone SB126d, SouthernBiotech Cat #10125-01 and 15930-08, respectively).

[2] = molecular target: T1, MR1 surface expression on THP-1 MR1 cells (Homo sapiens, UniProt Q95460); assay: Cell surface MR1 modulation on APCs (flow cytometry, anti-MR1 mAb 26.5); format: cell-based; conditions: THP-1 MR1 cells, 3 h at 37° C., 3 doses each
T1 construct: expressed in transfected cells; host or cells: THP-1 (ATCC TIB-202) stably expressing MR1 (THP1-MR1)
Experimental: […] […] For each condition, net MFI was calculated subtracting isotype MFI from anti-MR1 MFI and fold change of cells treated with synthetic molecules over cells treated with vehicle was calculated.

[3] = system: MR1T cell clones; assay: Competition assay for stimulation of MR1T cell clones; format: cell-based, human; conditions: APCs with compound 2 h (3 doses), then antigen at optimal concentration, cytokine ELISA
Experimental: As positive control for competition with antigens, Ac-6-FP was used (100 μM). Supernatants were collected after 24 h for cytokine analysis measured by ELISA.

[4] = system: MR1T cell clones; assay: MR1T cell activation assay with THP-1 cells incubated with compounds (cytokine ELISA); format: cell-based, human
Experimental: MR1T cells (5×10^4/well unless otherwise indicated) were co-cultured with the indicated APCs (10^5 cells per well unless otherwise indicated) for 18 h in 120 μL volume in triplicate.
When nucleobases, nucleosides or nucleotides (all 250 μM) and synthetic compounds M3ADE, OPdA, M1G or OPdC were used to stimulate T cells, the THP-1 cells (10^5/well) were cultured 2 h with the indicated molecules or medium only, prior to T-cell addition. When a single concentration of synthetic antigens was used, 100 μM OPdA, 100 μM OPdC and 13 μM M1G were used for all clones, while 100 μM M3ADE was used for all clones except DGB129, AC1A4, AC1B76 and AVA46 for which 1 μM was used.

[5] = system: MR1T cell clones; assay: MR1T cell activation assay with treated and fixed A375-MR1 cells; format: cell-based, human; conditions: 18 h treatment before fixation; concentrations (FIG. 10D-L)
Experimental: as §1, §2, §3

[6] = system: MAIT clone MRC25; assay: Control stimulation of MAIT clone MRC25; format: cell-based, human; conditions: A375-MR1 cells treated with carbonyl scavengers (FIG. 16E)
Experimental: In some experiments, MAIT cells were stimulated by APCs pulsed 3 h with 5-OP-RU as previously described or with 30 μM 6,7-dimethyl-8-ribityllumazine (Cayman Chemical Cat #23370).

Row | MRI upregulation [2] | SMILES | Competition [3] | MR1T-cell stimulation (IFN-γ) by treated, fixed A375-MR1 cells [5] | other results
1 |  | CCCCCC[C@@H]([C@@H](C)O)n1cnc2c(N)ncnc21 (racemic) [EHNA, erythro-9-(2-hydroxy-3-nonyl) adenine] |  |  | stimulation of TC5A87 MR1T clone (IFN-γ) [1]: induces the stimulation; T cell response in MR1T cell clones [1]: induced a strong stimulation; reactivity of DGB129 clone to drug-treated THP-1 cells [1]: reacted
2 |  | NC(CCC(=O)NC(CSCc1ccc(Br)cc1)C(=O)NCC(=O)OC1CCCC1)C(=O)OC1CCCC1 (stereo not drawn) [BBG, S-p-bromobenzylglutathione cyclopentyl diester] |  |  | IFN-γ release of both MR1T cell clones to THP-1 cells ([1]; BBG in combination with each of MPA and EHNA, clones TC5A87 and DGB129 (FIG. 9G, H)): significantly enhanced; reactivity of DGB129 clone to drug-treated THP-1 cells [1]: reacted
3 | YES | C[C@@H](O)[C@H](NC(=O)Nc1ncnc2c1ncn2[C@@H]1O[C@H](CO)[C@@H](O)[C@H]1O)C(=O)O [Cmpd 5, N6-threonylcarbamoyladenosine] | YES |  | Reactive T cells isolated [4]: YES
4 | YES | CC(C)=CCNc1ncnc2c1ncn2[C@@H]1O[C@H](CO)C(O)C1O (stereo partly drawn) [Cmpd 6, N6-isopent-2-enyladenosine] | YES |  | Reactive T cells isolated [4]: YES
5 | YES | C[C@@H](O)[C@H](NC(=O)N(C)c1ncnc2c1ncn2[C@@H]1O[C@H](CO)[C@@H](O)[C@H]1O)C(=O)O [Cmpd 10, N6-methyl-N6-threonylcarbamoyladenosine] | YES |  | Reactive T cells isolated [4]: YES
6 | YES | CO[C@@H]1[C@H](O)[C@@H](CO)O[C@H]1n1cnc2c(=O)[nH]c(N)nc21 [Cmpd 18, 2′-O-methylguanosine] | YES |  | 
7 | YES | CN(C)c1nc2c(ncn2[C@@H]2O[C@H](CO)[C@@H](O)[C@H]2O)c(=O)[nH]1 [Cmpd 19, N2,N2-dimethylguanosine] | YES |  | Reactive T cells isolated [4]: YES
8 | YES | CO[C@@H]1[C@H](O)[C@@H](CO)O[C@H]1n1ccc(N)nc1=O [Cmpd 29, 2′-O-methylcytidine] | YES |  | 
9 | YES | Cn1c(=O)ccn([C@@H]2O[C@H](CO)[C@@H](O)[C@H]2O)c1=O [Cmpd 30, 3-methyluridine] | YES |  | Reactive T cells isolated [4]: YES
10 | YES | Cc1cn([C@@H]2O[C@H](CO)[C@@H](O)[C@H]2O)c(=O)[nH]c1=O [Cmpd 31, 5-methyluridine] | YES |  | 
11 | YES | CO[C@@H]1[C@H](O)[C@@H](CO)O[C@H]1n1ccc(=O)n(C)c1=O [Cmpd 32, 3,2′-O-dimethyluridine] | YES |  | 
12 | YES | Nc1nc2c(c(CN[C@H]3C=C[C@H](O)[C@@H]3O)cn2[C@@H]2O[C@H](CO)[C@@H](O)[C@H]2O)c(=O)[nH]1 [Cmpd 33, Queuosine] | YES |  | 
13 | YES | COC(=O)N[C@@H](CCc1c(C)nc2n(C)c3c(ncn3[C@@H]3O[C@H](CO)[C@@H](O)[C@H]3O)c(=O)n12)C(=O)OC [Cmpd 34, Wybutosine] | YES |  | 
14 | YES | CNc1ncnc2c1ncn2[C@@H]1O[C@H](CO)[C@@H](O)[C@H]1O [Cmpd 42, N6-methyladenosine] | YES |  | 
15 |  | Cc1ncnc2nc[nH]c12 [Cmpd 43, 6-Methylpurine] | YES |  | MRI downmodulation [2]: YES
16 |  | CC(C)=CCNc1ncnc2[nH]cnc12 [Cmpd 45, N6-(Δ2-Isopent-2-enyl) adenine] | YES |  | MRI downmodulation [2]: YES
17 |  | O=c1c(-c2ccc(O)cc2)coc2cc(O[C@@H]3O[C@H](CO)[C@@H](O)[C@H](O)[C@H]3O)ccc12 [Daidzin] |  |  | response of MCA2B9 MR1T clone (IFN-γ) ([1]; THP-1 cells incubated 18 h with drug (FIG. 7a, b)): increase the response; T cell response in MR1T cell clones [1]: induced a strong T cell response
18 |  | O=c1oc2c(O)c(O)cc3c(=O)oc4c(O)c(O)cc1c4c23 [Ellagic acid, ellagic acid] |  |  | stimulation of QY1A16 MR1T clone (IFN-γ) ([1]; THP-1 cells incubated 18 h with drug (FIG. 7e)): induces the stimulation; T cell response in MR1T cell clones [1]: induced a strong T cell response
19 |  | N[C@@H](CCC(=O)N[C@@H](CS)C(=O)NCC(=O)O)C(=O)O [GSH, L-glutathione reduced] |  | significantly less IFN-γ production | 
20 |  | Cc1onc(C(=O)N2CCN(C(c3ccc(Cl)cc3)c3ccc(Cl)cc3)CC2)c1[N+](=O)[O-] [ML-210] |  | significantly increased MR1T-cell stimulatory activity | 
21 |  | COc1c(C)c2c(c(O)c1C/C=C(\C)CCC(=O)O)C(=O)OC2 [Mycophenolic acid] |  |  | stimulation of TC5A87 MR1T clone (IFN-γ) [1]: induces the stimulation; T cell response in MR1T cell clones [1]: induced a strong stimulation; reactivity of DGB129 clone to drug-treated THP-1 cells [1]: reacted
22 |  | CC(=O)N[C@@H](CS)C(=O)O [N-acetylcysteine] |  | significantly less IFN-γ production | 
23 |  | CC1(C)CC[C@]2(C(=O)O)CC[C@]3(C)C(=CC[C@@H]4[C@@]5(C)CC[C@H](O)C(C)(C)[C@@H]5CC[C@]43C)[C@@H]2C1 [Oleanoic acid, oleanoic acid] |  |  | stimulation of TC5A87 MR1T clone (IFN-γ) [1]: induces the stimulation; T cell response in MR1T cell clones [1]: induced a strong T cell response
24 |  | COC(=O)c1ccc([C@H]2c3[nH]c4ccccc4c3C[C@H](C(=O)OC)N2C(=O)CCl)cc1 [RSL3, 1S,3R-RSL3] |  | significantly increased MR1T-cell stimulatory activity | 
25 |  | N=C(N)NN [aminoguanidine, aminoguanidine hemisulfate salt] |  | significant inhibition of IFN-γ production | MAIT cell activation [6]: no effect on MAIT cell activation
26 |  | COc1cc(C(C)=O)ccc1O [apocynin] |  | effective with one T-cell clone | 
27 |  | CCCCS(=N)(=O)CCC(N)C(=O)O (stereo not drawn) [buthionine sulfoximine] |  | significant increase | 
28 |  | NNc1nncc2ccccc12 [hydralazine, hydralazine hydrochloride] |  | significant inhibition of IFN-γ production | MAIT cell activation [6]: no effect on MAIT cell activation
29 |  | O=C(O)CC(S)C(=O)O (stereo not drawn) [mercaptosuccinic acid] |  | significantly increased MR1T-cell stimulatory activity | 

Row | SMILES | MRI upregulation [2] | Competition [3] | MR1T-cell stimulation (IFN-γ) by treated, fixed A375-MR1 cells [5] | other results
30 | CN(C)c1ncnc2nc[nH]c12 [Cmpd 44, 6-(Dimethylamino)purine] | YES | YES |  | 
